{
  "source": "patent US20240239806A1",
  "about": "“COMPOUNDS, COMPOSITIONS AND METHODS OF TREATING DISORDERS” (Chengdu Anticancer Bioscience, Ltd., priority 2021, published 2024)",
  "test_system": "RPEMYC^H2B-GFP cells",
  "test": "Phenotypic screening assay (mitotic arrest, polyploidy)",
  "assay_type": "cell-based",
  "conditions": "1 nM to 30 μM; for IC50: read-out: Proliferative arrest (>50%)",
  "procedure": "We have previously developed a mechanism-informed phenotypic screening assay to identify novel antimitotic agents. Equipped with a prior understanding of the versatile functions of the chromosomal passenger protein (CPP) complex in orchestrating karyokinesis and cytokinesis, the screening assay is to score for phenotypes typically seen when the CPP complex is disabled. Specifically, the parameters for a positive hit are a temporary elevation of mitotic index (MI) at 24 hours of drug treatment and an accumulation of polyploid cells at 48 hours of drug treatment, indicative of mitotic arrest and cytokinetic failure respectively. These parameters exclude compounds that elicit only a prolonged arrest of cells in mitosis, a phenotype typically provoked by spindle toxins. The screening procedure is briefly summarized here. RPEMYC^H2B-GFP cells engineered to express a Histone 2B-EGFP fusion protein were passaged as batches of 96-well plates, 18-24 hours before exposure to the chemical compounds of the present disclosure at concentrations from 1 nM to 30 μM. At 24, 48 or 72 hours after initiation of treatment, cells were analyzed for either an arrest in mitosis or a change in DNA content by GE IN-Cell Analyzer 2000. As set forth in Table 2 below, a value of greater than or equal to 1 nM and less than or equal to 1.0 μM is marked “A”; a value greater than 1.00 μM and less than or equal to 10.0 μM is marked “B”; a value greater than 10.0 μM and less than or equal to 30.0 μM is marked “C”; and a value greater than 30.0 μM is marked “D.”",
  "key": {"[1]": {"conditions": "read-out: Min. Effective conc. for Polyploidy (≥5%)"}},
  "note": "Like-named read-outs stand apart in the source and are kept apart here.",
  "data": [
    {"compound": "COc1cc(Oc2ccnc3cc(OC)c(C(N)=O)cc23)cc(-c2nc(C)no2)c1", "note": "[Compound 64, 7-Methoxy-4-(3-methoxy-5-(3-methyl-1,2,4-oxadiazol-5-yl)phenoxy)quinoline-6-carboxamide]", "values": [
      {"measurement": "minimal effective concentration", "setting": "[1]", "result": "0.001 to 1", "unit": "µM"},
      {"measurement": "minimal effective concentration", "setting": "read-out: Mitotic Arrest (≥5%)", "result": "0.001 to 1", "unit": "µM"},
      {"measurement": "IC50", "result": "1 to 1000", "unit": "nM"}
    ]},
    {"compound": "COc1cc(Oc2ncnc3cc(OC)c(OC)cc23)cc(-n2cccn2)c1", "note": "[Compound 74, 4-(3-methoxy-5-(1H-pyrazol-1-yl)phenoxy)-6,7-dimethoxyquinazoline]", "values": [
      {"measurement": "minimal effective concentration", "setting": "[1]", "result": "10 to 30", "unit": "µM"},
      {"measurement": "minimal effective concentration", "setting": "read-out: Mitotic Arrest (≥5%)", "result": "10 to 30", "unit": "µM"},
      {"measurement": "IC50", "result": "10000 to 30000", "unit": "nM"}
    ]},
    {"compound": "COc1cc(Oc2ccnc3ccc(Cl)cc23)cc(-n2cccn2)c1", "note": "[Compound 51, 6-Chloro-4-(3-methoxy-5-(1H-pyrazol-1-yl)phenoxy) quinoline]", "values": [
      {"measurement": "minimal effective concentration", "setting": "[1]", "result": "0.001 to 1", "unit": "µM"},
      {"measurement": "minimal effective concentration", "setting": "read-out: Mitotic Arrest (≥5%)", "result": "0.001 to 1", "unit": "µM"},
      {"measurement": "IC50", "result": "1 to 1000", "unit": "nM"}
    ]},
    {"compound": "COc1cc(Oc2ccnc3cc(OC)c(C(N)=O)cc23)cc(-c2ncccn2)c1", "note": "[Compound 62, 7-Methoxy-4-(3-methoxy-5-(pyridimin-2-yl)phenoxy) quinoline-6-carboxamide]", "values": [
      {"measurement": "minimal effective concentration", "setting": "[1]", "result": "0.001 to 1", "unit": "µM"},
      {"measurement": "minimal effective concentration", "setting": "read-out: Mitotic Arrest (≥5%)", "result": "0.001 to 1", "unit": "µM"},
      {"measurement": "IC50", "result": "1 to 1000", "unit": "nM"}
    ]},
    {"compound": "COc1cc(Oc2cc(C)nc3ccccc23)cc(-n2cccn2)c1", "note": "[Compound 96, 4-(3-methoxy-5-(1H-pyrazol-1-yl)phenoxy)-2-methylquinoline]", "values": [
      {"measurement": "minimal effective concentration", "setting": "[1]", "result": "0.001 to 1", "unit": "µM"},
      {"measurement": "minimal effective concentration", "setting": "read-out: Mitotic Arrest (≥5%)", "result": "0.001 to 1", "unit": "µM"}
    ]},
    {"compound": "COc1cc(NC(C)=O)cc(Oc2ccnc3cc(OC)c(C(N)=O)cc23)c1", "note": "[Compound 31, 4-(3-acetamido-5-methoxyphenoxy)-7-methoxyquinoline-6-carboxamide]", "values": [
      {"measurement": "minimal effective concentration", "setting": "[1]", "result": "0.001 to 1", "unit": "µM"},
      {"measurement": "minimal effective concentration", "setting": "read-out: Mitotic Arrest (≥5%)", "result": "0.001 to 1", "unit": "µM"},
      {"measurement": "IC50", "result": "1 to 1000", "unit": "nM"}
    ]},
    {"compound": "COc1cc(Oc2ccnc3ccc(Br)cc23)cc(-c2nc(C)no2)c1", "note": "[Compound 67, 5-(3-((6-Bromoquinolin-4-yl)oxy)-5-methoyphenyl)-3-methyl-1,2,4-oxadiazole]", "values": [
      {"measurement": "minimal effective concentration", "setting": "[1]", "result": "0.001 to 1", "unit": "µM"},
      {"measurement": "minimal effective concentration", "setting": "read-out: Mitotic Arrest (≥5%)", "result": "0.001 to 1", "unit": "µM"},
      {"measurement": "IC50", "result": "1 to 1000", "unit": "nM"}
    ]},
    {"compound": "CNC(=O)c1cc(OC)cc(Oc2ccnc3ccc(C(F)(F)F)cc23)c1", "note": "[Compound 70, 3-Methoxy-N-methyl-5-((6-(trifluoromethyl)quinolin-4-yl)oxy) benzamide]", "values": [
      {"measurement": "minimal effective concentration", "setting": "[1]", "result": "1 to 10", "unit": "µM"},
      {"measurement": "minimal effective concentration", "setting": "read-out: Mitotic Arrest (≥5%)", "result": "1 to 10", "unit": "µM"},
      {"measurement": "IC50", "result": "1000 to 10000", "unit": "nM"}
    ]},
    {"compound": "Cc1cc(Oc2ccnc3ccc(C(N)=O)cc23)cc(-n2cccn2)c1", "note": "[Compound 1, 4-(3-methyl-5-(1H-pyrazol-1-yl)phenoxy)quinoline-6-carboxamide]", "values": [
      {"measurement": "minimal effective concentration", "setting": "[1]", "result": "0.001 to 1", "unit": "µM"},
      {"measurement": "minimal effective concentration", "setting": "read-out: Mitotic Arrest (≥5%)", "result": "0.001 to 1", "unit": "µM"}
    ]},
    {"compound": "COc1cc(Oc2ccnc3cc(OC)c(C(N)=O)cc23)cc(OC2CCOC2)c1", "note": "(stereo not shown) [Compound 6, 7-methoxy-4-(3-methoxy-5-((tetrahydrofuran-3-yl)oxy)phenoxy)quinoline-6-carboxamide]", "values": [
      {"measurement": "minimal effective concentration", "setting": "[1]", "result": "0.001 to 1", "unit": "µM"},
      {"measurement": "minimal effective concentration", "setting": "read-out: Mitotic Arrest (≥5%)", "result": "0.001 to 1", "unit": "µM"}
    ]},
    {"compound": "COc1cc(OCC2CCOC2)cc(Oc2ccnc3cc(OC)c(C(N)=O)cc23)c1", "note": "(stereo not shown) [Compound 83, 7-methoxy-4-(3-methoxy-5-((tetrahydrofuran-3-yl)methoxy)phenoxy)quinoline-6-carboxamide]", "values": [
      {"measurement": "minimal effective concentration", "setting": "[1]", "result": "0.001 to 1", "unit": "µM"},
      {"measurement": "minimal effective concentration", "setting": "read-out: Mitotic Arrest (≥5%)", "result": "0.001 to 1", "unit": "µM"}
    ]},
    {"compound": "COc1cc(Oc2ccnc3cc(OC)c(C(N)=O)cc23)cc(O[C@H]2CCOC2)c1", "note": "[Compound 80, (S)-7-methoxy-4-(3-methoxy-5-((tetrahydrofuran-3-yl)oxy)phenoxy)quinoline-6-carboxamide]", "values": [
      {"measurement": "minimal effective concentration", "setting": "[1]", "result": "0.001 to 1", "unit": "µM"},
      {"measurement": "minimal effective concentration", "setting": "read-out: Mitotic Arrest (≥5%)", "result": "0.001 to 1", "unit": "µM"}
    ]},
    {"compound": "CNC(=O)c1ccc2nccc(Oc3cc(OC)cc(-n4cccn4)c3)c2c1", "note": "[Compound 57, 4-(3-Methoxy-5-(1H-pyrazol-1-yl)phenoxy)-N-methylquinoline-6-carboxamide]", "values": [
      {"measurement": "minimal effective concentration", "setting": "[1]", "result": "0.001 to 1", "unit": "µM"},
      {"measurement": "minimal effective concentration", "setting": "read-out: Mitotic Arrest (≥5%)", "result": "0.001 to 1", "unit": "µM"},
      {"measurement": "IC50", "result": "1 to 1000", "unit": "nM"}
    ]},
    {"compound": "COc1cc(OC)cc(Oc2ncnc3ccn(C)c23)c1", "note": "[Compound 54, 4-(3,5-Dimethoxyphenoxy)-5-methyl-5H-pyrrolo[3,2-d] pyrimidine]", "values": [
      {"measurement": "minimal effective concentration", "setting": "[1]", "result": "10 to 30", "unit": "µM"},
      {"measurement": "minimal effective concentration", "setting": "read-out: Mitotic Arrest (≥5%)", "result": "1 to 10", "unit": "µM"},
      {"measurement": "IC50", "result": "10000 to 30000", "unit": "nM"}
    ]},
    {"compound": "CCOc1cc(Oc2ccnc3ccc(C(N)=O)cc23)cc(-n2cccn2)c1", "note": "[Compound 65, 4-(3-Ethoxy-5-(MH-pyrazol-1-yl)phenoxy) quinoline-6-carboxamide]", "values": [
      {"measurement": "minimal effective concentration", "setting": "[1]", "result": "0.001 to 1", "unit": "µM"},
      {"measurement": "minimal effective concentration", "setting": "read-out: Mitotic Arrest (≥5%)", "result": "0.001 to 1", "unit": "µM"},
      {"measurement": "IC50", "result": "1 to 1000", "unit": "nM"}
    ]},
    {"compound": "CNC(=O)c1cc(OC)cc(Oc2ccnc3cc(OC)c(C(N)=O)cc23)c1", "note": "[Compound 71, 7-Methoxy-4-(3-methoxy-5-(methylcarbamoyl)phenoxy) quinoline-6-carboxamide]", "values": [
      {"measurement": "minimal effective concentration", "setting": "[1]", "result": "1 to 10", "unit": "µM"},
      {"measurement": "minimal effective concentration", "setting": "read-out: Mitotic Arrest (≥5%)", "result": "1 to 10", "unit": "µM"},
      {"measurement": "IC50", "result": "1000 to 10000", "unit": "nM"}
    ]},
    {"compound": "COc1cc(Oc2ncnc3ccccc23)cc(-n2cccn2)c1", "note": "[Compound 73, 4-(3-Methoxy-5-(1H-pyrazol-1-yl)phenoxy) quinazoline]", "values": [
      {"measurement": "minimal effective concentration", "setting": "[1]", "result": "10 to 30", "unit": "µM"},
      {"measurement": "minimal effective concentration", "setting": "read-out: Mitotic Arrest (≥5%)", "result": "10 to 30", "unit": "µM"},
      {"measurement": "IC50", "result": "10000 to 30000", "unit": "nM"}
    ]}
  ]
}
